# Measured values taken from PubChem BioAssay (NCI).
#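 Cultured in 96-well plates, cells were exposed to test compound for 48 hours across five concentrations. Abbreviation: GI50, concentration required for 50% inhibition of growth. The concentration for full growth arrest is given as TGI.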
# Legend:
# Assay in all cases: growth of human tumour cells (NCI), 48 h
# OVCAR-4 ovarian = test system: OVCAR-4 ovarian
# HOP-92 NSCLC = test system: HOP-92 NSCLC
# UACC-62 melanoma = test system: UACC-62 melanoma
# SK-OV-3 ovarian = test system: SK-OV-3 ovarian
# SF-268 CNS = test system: SF-268 CNS
# U251 CNS = test system: U251 CNS
# TK-10 renal = test system: TK-10 renal
# KM12 colon = test system: KM12 colon
# DU-145 prostate = test system: DU-145 prostate
# ACHN renal = test system: ACHN renal
# BT-549 breast = test system: BT-549 breast
# UACC-257 melanoma = test system: UACC-257 melanoma
# SNB-19 CNS = test system: SNB-19 CNS
# SF-295 CNS = test system: SF-295 CNS
# UO-31 renal = test system: UO-31 renal
# LOX IMVI melanoma = test system: LOX IMVI melanoma
# HS 578T breast = test system: HS 578T breast
# OVCAR-5 ovarian = test system: OVCAR-5 ovarian
# HL-60(TB) leukemia = test system: HL-60(TB) leukemia
# MCF7 breast = test system: MCF7 breast
# SNB-75 CNS = test system: SNB-75 CNS
# SK-MEL-2 melanoma = test system: SK-MEL-2 melanoma
# NCI/ADR-RES ovarian = test system: NCI/ADR-RES ovarian
# PC-3 prostate = test system: PC-3 prostate
# NCI-H226 lung = test system: NCI-H226 lung
# MALME-3M melanoma = test system: MALME-3M melanoma
# HCT-116 colon = test system: HCT-116 colon
# COLO 205 colon = test system: COLO 205 colon
# OVCAR-8 ovarian = test system: OVCAR-8 ovarian
# HOP-62 NSCLC = test system: HOP-62 NSCLC
# HT29 colon = test system: HT29 colon
# K-562 leukemia = test system: K-562 leukemia
# MDA-MB-435 = test system: MDA-MB-435
# IGROV1 ovarian = test system: IGROV1 ovarian
# NCI-H460 lung = test system: NCI-H460 lung
# M14 melanoma = test system: M14 melanoma
# SF-539 CNS = test system: SF-539 CNS
# CAKI-1 renal = test system: CAKI-1 renal
# RPMI-8226 leukemia = test system: RPMI-8226 leukemia
# NCI-H23 lung = test system: NCI-H23 lung
# 786-0 renal = test system: 786-0 renal
# HCC-2998 colon = test system: HCC-2998 colon
# CCRF-CEM leukemia = test system: CCRF-CEM leukemia
# OVCAR-3 ovarian = test system: OVCAR-3 ovarian
# HCT-15 colon = test system: HCT-15 colon
# A549 NSCLC = test system: A549 NSCLC
# SR leukemia = test system: SR leukemia
# NCI-H522 lung = test system: NCI-H522 lung
# SK-MEL-28 melanoma = test system: SK-MEL-28 melanoma
# MOLT-4 leukemia = test system: MOLT-4 leukemia
# A498 renal = test system: A498 renal
# MDA-MB-231 breast = test system: MDA-MB-231 breast
# SW-620 colon = test system: SW-620 colon
# EKVX NSCLC = test system: EKVX NSCLC
# SK-MEL-5 melanoma = test system: SK-MEL-5 melanoma
# T-47D breast = test system: T-47D breast
compound,measurement,setting,value
O=C(Nc1ccccc1Cl)c1ccc(NC2=C(Cl)C(=O)N(C3CCCCC3)C2=O)cc1,GI50,OVCAR-4 ovarian,25.1 µM
same,TGI,OVCAR-4 ovarian,74.9 µM
same,GI50,HOP-92 NSCLC,17.4 µM
same,TGI,HOP-92 NSCLC,42.2 µM
same,GI50,UACC-62 melanoma,6.78 µM
same,TGI,UACC-62 melanoma,26.5 µM
same,GI50,SK-OV-3 ovarian,27.1 µM
same,TGI,SK-OV-3 ovarian,65.2 µM
same,GI50,SF-268 CNS,20.2 µM
same,TGI,SF-268 CNS,52.9 µM
same,GI50,U251 CNS,3 µM
same,TGI,U251 CNS,19.4 µM
same,GI50,TK-10 renal,20.6 µM
same,TGI,TK-10 renal,44.3 µM
same,GI50,KM12 colon,16.9 µM
same,TGI,KM12 colon,35.7 µM
same,GI50,DU-145 prostate,6.78 µM
same,TGI,DU-145 prostate,23.9 µM
same,GI50,ACHN renal,10.6 µM
same,TGI,ACHN renal,30.4 µM
same,GI50,BT-549 breast,20.7 µM
same,TGI,BT-549 breast,47.1 µM
same,GI50,UACC-257 melanoma,5.29 µM
same,TGI,UACC-257 melanoma,15 µM
same,GI50,SNB-19 CNS,16.9 µM
same,TGI,SNB-19 CNS,38.5 µM
same,GI50,SF-295 CNS,26.4 µM
same,TGI,SF-295 CNS,68.1 µM
same,GI50,UO-31 renal,16.6 µM
same,TGI,UO-31 renal,42.3 µM
same,GI50,LOX IMVI melanoma,1.68 µM
same,TGI,LOX IMVI melanoma,20.9 µM
same,GI50,HS 578T breast,6.75 µM
same,TGI,HS 578T breast,133 µM
same,GI50,OVCAR-5 ovarian,49.5 µM
same,TGI,OVCAR-5 ovarian,128 µM
same,GI50,HL-60(TB) leukemia,3.38 µM
same,TGI,HL-60(TB) leukemia,8.48 µM
same,GI50,MCF7 breast,9.82 µM
same,TGI,MCF7 breast,36 µM
same,GI50,SNB-75 CNS,8.64 µM
same,TGI,SNB-75 CNS,34.4 µM
same,GI50,SK-MEL-2 melanoma,16.7 µM
same,TGI,SK-MEL-2 melanoma,44.1 µM
same,GI50,NCI/ADR-RES ovarian,29.3 µM
same,TGI,NCI/ADR-RES ovarian,82.8 µM
same,GI50,PC-3 prostate,13.6 µM
same,TGI,PC-3 prostate,45.5 µM
same,GI50,NCI-H226 lung,9.4 µM
same,TGI,NCI-H226 lung,31.8 µM
same,GI50,MALME-3M melanoma,20.5 µM
same,TGI,MALME-3M melanoma,51.2 µM
same,GI50,HCT-116 colon,5.51 µM
same,TGI,HCT-116 colon,36.1 µM
same,GI50,COLO 205 colon,18.7 µM
same,TGI,COLO 205 colon,38.3 µM
same,GI50,OVCAR-8 ovarian,2.99 µM
same,TGI,OVCAR-8 ovarian,18.5 µM
same,GI50,HOP-62 NSCLC,8.37 µM
same,TGI,HOP-62 NSCLC,29.3 µM
same,GI50,HT29 colon,10.8 µM
same,TGI,HT29 colon,30 µM
same,GI50,K-562 leukemia,2.88 µM
same,TGI,K-562 leukemia,17.9 µM
same,GI50,MDA-MB-435,9.61 µM
same,TGI,MDA-MB-435,44.1 µM
same,GI50,IGROV1 ovarian,6.87 µM
same,TGI,IGROV1 ovarian,23.3 µM
same,GI50,NCI-H460 lung,19.7 µM
same,TGI,NCI-H460 lung,52.1 µM
same,GI50,M14 melanoma,11.7 µM
same,TGI,M14 melanoma,42.1 µM
same,GI50,SF-539 CNS,27.3 µM
same,TGI,SF-539 CNS,58.5 µM
same,GI50,CAKI-1 renal,22.9 µM
same,TGI,CAKI-1 renal,56.5 µM
same,GI50,RPMI-8226 leukemia,7.35 µM
same,TGI,RPMI-8226 leukemia,34.2 µM
same,GI50,NCI-H23 lung,4.92 µM
same,TGI,NCI-H23 lung,21.2 µM
same,GI50,786-0 renal,9.64 µM
same,TGI,786-0 renal,30.2 µM
same,GI50,HCC-2998 colon,3.55 µM
same,TGI,HCC-2998 colon,6.05 µM
same,GI50,CCRF-CEM leukemia,8.29 µM
same,TGI,CCRF-CEM leukemia,33.5 µM
same,GI50,OVCAR-3 ovarian,9.25 µM
same,TGI,OVCAR-3 ovarian,28.4 µM
same,GI50,HCT-15 colon,6.79 µM
same,TGI,HCT-15 colon,25.2 µM
same,GI50,A549 NSCLC,13.3 µM
same,TGI,A549 NSCLC,32.9 µM
same,GI50,SR leukemia,3.03 µM
same,TGI,SR leukemia,7.87 µM
same,GI50,NCI-H522 lung,6.23 µM
same,TGI,NCI-H522 lung,34.7 µM
same,GI50,SK-MEL-28 melanoma,17.6 µM
same,TGI,SK-MEL-28 melanoma,49.6 µM
same,GI50,MOLT-4 leukemia,5.56 µM
same,TGI,MOLT-4 leukemia,20.4 µM
same,GI50,A498 renal,40.6 µM
same,TGI,A498 renal,157 µM
same,GI50,MDA-MB-231 breast,13.7 µM
same,TGI,MDA-MB-231 breast,33.3 µM
same,GI50,SW-620 colon,10.3 µM
same,TGI,SW-620 colon,30.2 µM
same,GI50,EKVX NSCLC,24.3 µM
same,TGI,EKVX NSCLC,53.1 µM
same,GI50,SK-MEL-5 melanoma,11.5 µM
same,TGI,SK-MEL-5 melanoma,40.3 µM
same,GI50,T-47D breast,6.41 µM
same,TGI,T-47D breast,34.8 µM
